Consider 15 molecules from patent publication EP0497091A1, “Bridged cyclic ketal derivatives” (GLAXO GROUP LIMITED, priority 1991, dated 1992).

In brackets after ≈: the same amount, converted by molar mass.

For one assay, the target named is T1, squalene synthase (Rattus norvegicus, UniProt Q02769).
T1 construct: from tissue; host or cells: rat liver homogenate
T1 sequence (Q02769 1-416): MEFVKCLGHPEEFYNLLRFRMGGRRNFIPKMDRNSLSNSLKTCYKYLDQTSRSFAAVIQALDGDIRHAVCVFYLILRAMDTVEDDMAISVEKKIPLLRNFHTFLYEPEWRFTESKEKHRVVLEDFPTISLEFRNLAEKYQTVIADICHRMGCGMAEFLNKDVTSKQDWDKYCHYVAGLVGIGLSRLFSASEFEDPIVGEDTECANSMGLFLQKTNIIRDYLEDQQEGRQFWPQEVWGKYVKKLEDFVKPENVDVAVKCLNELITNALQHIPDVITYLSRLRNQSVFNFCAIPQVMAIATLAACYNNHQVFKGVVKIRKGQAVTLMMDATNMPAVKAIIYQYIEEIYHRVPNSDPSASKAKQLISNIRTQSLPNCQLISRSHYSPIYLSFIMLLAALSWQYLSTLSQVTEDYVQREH
Kind of assay: Inhibition of squalene synthase ([14C]squalene production from [2-14C]farnesylpyrophosphate). Format: biochemical. The source says:
A. Biller et al. in J. […] [¹⁴C]squalene is separated from unreacted substrate on thin layer chromatography plates and determined by liquid scintillation counting. […] Acta, Volume 877, 50-60 (1986) and modified to include measurement of cholesterol by high performance liquid chromatography (h.p.l.c.). […] A. […] [¹⁴C] Squalene was separated from unreacted substrate on thin layer chromatography plates and determined by liquid scintillation counting. Inhibition of squalene synthase was quantified by incubating rat liver homogenate with various concentrations of the test compound in the presence of [2-¹⁴C] farnesylpyrophosphate. The concentration of compound giving 50% inhibition of [¹⁴C] squalene production in a 30 minute assay was taken as the IC₅₀ value.

Assay [1] concerns clinically relevant pathogens. Kind of assay: In vitro antifungal activity, agar plate MIC determination. Format: cell-based. The conditions noted are these: Candida albicans. The method, then:
The in vitro evaluation of the anti-fungal activity of compounds of the invention can be performed by determining the minimum inhibitory concentration (MIC) which is the concentration of the test compound in a suitable medium at which growth of a particular microorganism fails to occur.
[¹⁴C] Squalene was separated from unreacted substrate on thin layer chromatography plates and determined by liquid scintillation counting. Inhibition of squalene synthase was quantified by incubating rat liver homogenate with various concentrations of the test compound in the presence of [2-¹⁴C] farnesylpyrophosphate. The concentration of compound giving 50% inhibition of [¹⁴C] squalene production in a 30 minute assay was taken as the IC₅₀ value. […] In practice, a series of agar plates, each having the test compound incorporated at a particular concentration, was inoculated with a standard culture of a clinically relevant pathogen, for example Candida albicans, and each plate was then incubated at 37 °C for 24 to 48 hours depending on the pathogen.

A word on the IC50: it is the concentration needed to halve the response being measured. Higher therefore signals lower potency. The MIC is the lowest concentration found to suppress growth. Lower therefore signals a more susceptible organism. In turn, `C=C(CC[C@]12O[C@H](C(=O)O)[C@@](O)(C(=O)O)[C@](C(=O)O)(O1)[C@H](OC(=O)CCCCCCCCC)[C@H]2O)[C@@H](OC(C)=O)[C@H](C)Cc1ccccc1` (relative stereo) [6-decanoate in Example 30, [1S-[1α(4R*,5S*),3α,4β,5α,6α,7β]] 1-(4-acetyloxy-5-methyl-3-methylene-6-phenylhexyl)-4,6,7-trihydroxy-2,8-dioxabicyclo[3.2.1]octane-3,4,5-tricarboxylic acid, 6-decanoate] showed an IC50 on squalene synthase below 100 nM. The minimal inhibitory concentration (MIC) in assay [1] is 0.1 to 31 µg/mL (≈ 0.144 to 44.7 µM).
As for `C=C(CC[C@]12O[C@H](C(=O)O)[C@@](O)(C(=O)O)[C@](C(=O)O)(O1)[C@H](OC(=O)CC13CC4CC(CC(C4)C1)C3)[C@H]2O)[C@@H](OC(C)=O)[C@H](C)Cc1ccccc1` (relative stereo) [Example 45, [1S-[1α(4R*,5S*),3α,4β,5α,6α,7β]] 1-(4-Acetyloxy-5-methyl-3-methylene-6-phenylhexyl)-4,6,7-trihydroxy-2,8-dioxabicyclo[3.2.1]octane-3,4,5-tricarboxylic acid, 6-[1-(tricyclo[3.3.1.1^3,7]decyl)acetate]], the IC50 on squalene synthase is below 100 nM. In addition, the minimum inhibitory concentration (MIC) in assay [1] was in the range of 0.1 to 31 µg/mL (≈ 0.14 to 43.4 µM).
`C=C(CCC12OC(C(=O)O)C(O)(C(=O)O)C(C(=O)O)(O1)C(OC(=O)C=CC(C)CC(C)CC)C2OC(C)=O)C(OC(C)=O)C(C)Cc1ccccc1` (stereo not drawn) [Example 24, [1S-[1α(4R*,5S*),3α,4β,5α,6α(2E,4R*,6R*),7β]] 7-Acetyloxy-1-(4-acetyloxy-5-methyl-3-methylene-6-phenylhexyl)-4,6-dihydroxy-2,8-dioxabicyclo[3.2.1]octane-3,4,5-tricarboxylic acid, 6-(4,6-dimethyl-2-octenoate)]: at squalene synthase, the IC50 was below 100 nM. Besides, the MIC in assay [1] lay within 0.1 to 31 µg/mL (≈ 0.136 to 42.3 µM).
In assay [1], `CC[C@H](C)C[C@H](C)CCC(=O)O[C@@H]1[C@@H](O)[C@@]2(CCC(C)[C@@H](O)[C@H](C)Cc3ccccc3)O[C@H](C(=O)O)[C@@](O)(C(=O)O)[C@]1(C(=O)O)O2` (relative stereo) [Example 13, [1S-[1α(3R*S*,4S*,5S*),3α,4β,5α,6α(4S*,6R*),7β]] 1-(3,5-Dimethyl-4-hydroxy-6-phenylhexyl)-4,6,7-trihydroxy-2,8-dioxabicyclo[3.2.1]octane-3,4,5-tricarboxylic acid, 6-(4,6-dimethyloctanoate)] gave a minimal inhibitory concentration (MIC) of 0.1 to 31 µg/mL (≈ 0.153 to 47.5 µM).
`C=C(CC[C@]12O[C@H](C(=O)O)[C@@](O)(C(=O)O)[C@](C(=O)O)(O1)[C@H](OC(=O)CCCCCCC)[C@H]2O)[C@@H](OC(C)=O)[C@H](C)Cc1ccccc1` (relative stereo) [Example 31, [1S-[1α(4R*,5S*),3α,4β,5α,6α,7β]] 1-(4-Acetyloxy-5-methyl-3-methylene-6-phenylhexyl)-4,6,7-trihydroxy-2,8-dioxabicyclo[3.2.1]octane-3,4,5-tricarboxylic acid, 6-octanoate] showed an IC50 on squalene synthase below 100 nM. In addition, in assay [1], the minimal inhibitory concentration (MIC) is 0.1 to 31 µg/mL (≈ 0.15 to 46.6 µM).
Take `CCC(C)CC(C)CCC(=O)OC1C(O)C2(CCC(O)C(O)C(C)Cc3ccccc3)OC(C(=O)O)C(O)(C(=O)O)C1(C(=O)O)O2` (stereo not drawn) [Example 18, [1S-[1α(3R*S*,4R*,5S*),3α,4β,5α,6α(4S*,6R*),7β]] 1-(3,4-Dihydroxy-5-methyl-6-phenylhexyl)-4,6,7-trihydroxy-2,8-dioxabicyclo[3.2.1]octane-3,4,5-tricarboxylic acid, 6-(4,6-dimethyloctanoate)]: on squalene synthase, the IC50 is below 100 nM. For the same molecule, the minimal inhibitory concentration (MIC) in assay [1] lay within 0.1 to 31 µg/mL (≈ 0.153 to 47.3 µM).
At squalene synthase, `C=C(CC[C@]12O[C@H](C(=O)O)[C@@](O)(C(=O)O)[C@](C(=O)O)(O1)[C@H](OC(=O)CC=CCCCC)[C@H]2O)[C@@H](OC(C)=O)[C@H](C)Cc1ccccc1` (relative stereo) [Example 64, [1S-[1α(4R*,5S*),3α,4β,5α,6α,7β]] 1-(4-Acetyloxy-5-methyl-3-methylene-6-phenylhexyl)-4,6,7-trihydroxy-2,8-dioxabicyclo[3.2.1]octane-3,4,5-tricarboxylic acid, 6-[(E/Z)-3-octenoate]] returned a concentration for half-maximal inhibition (IC50) below 100 nM. In assay [1], this molecule showed a minimum inhibitory concentration (MIC) of 0.1 to 31 µg/mL (≈ 0.151 to 46.8 µM).
As to `C=C(CC[C@]12O[C@H](C(=O)O)[C@@](O)(C(=O)O)[C@](C(=O)O)(O1)[C@H](OC(=O)CCCC1CCCCC1)[C@H]2O)[C@@H](OC(C)=O)[C@H](C)Cc1ccccc1` (relative stereo) [Example 41, [1S-[1α(4R*,5S*),3α,4β,5α,6α,7β]] 1-(4-Acetyloxy-5-methyl-3-methylene-6-phenylhexyl)-4,6,7-trihydroxy-2,8-dioxabicyclo[3.2.1]octane-3,4,5-tricarboxylic acid, 6-(4-cyclohexylbutanoate)], the 50% inhibitory concentration (IC50) against squalene synthase was below 100 nM. In addition, the minimum inhibitory concentration (MIC) in assay [1] lay in the range of 0.1 to 31 µg/mL (≈ 0.145 to 44.9 µM).
On the same counts, the results for `C=C(CC[C@]12O[C@H](C(=O)O)[C@@](O)(C(=O)O)[C@](C(=O)O)(O1)[C@H](OC(=O)CCCCCCc1ccccc1)[C@H]2O)[C@@H](OC(C)=O)[C@H](C)Cc1ccccc1` (relative stereo) [Example 39, [1S-[1α(4R*,5S*)3α,4β,5α,6α,7β]] 1-(4-Acetyloxy-5-methyl-3-methylene-6-phenylhexyl)-4,6,7-trihydroxy-2,8-dioxabicyclo[3.2.1]octane-3,4,5-tricarboxylic acid, 6-(7-phenylheptanoate)] are below 100 nM and 0.1 to 31 µg/mL (≈ 0.138 to 42.7 µM).
On the same counts, the results for `CC[C@H](C)C[C@H](C)CCC(=O)O[C@@H]1[C@@H](O)[C@@]2(C/C=C(\C)[C@@H](OC(C)=O)[C@H](C)Cc3ccccc3)O[C@H](C(=O)O)[C@@](O)(C(=O)O)[C@]1(C(=O)O)O2` (relative stereo) [Example 11, [1S-[1α[(E),4R*,5S*],3α,4β,5α,6α(4S*,6R*),7β]] 1-(4-Acetyloxy-3,5-dimethyl-6-phenyl-2-hexenyl)-4,6,7-trihydroxy-2,8-dioxabicyclo[3.2.1]octane-3,4,5-tricarboxylic acid, 6-(4,6-dimethyloctanoate)] are below 100 nM and 0.1 to 31 µg/mL (≈ 0.144 to 44.7 µM).
`C=C(CC[C@]12O[C@H](C(=O)O)[C@@](O)(C(=O)O)[C@](C(=O)O)(O1)[C@H](OC(=O)/C=C/[C@@H](C)C[C@@H](C)CC)[C@H]2O)C(=O)[C@H](C)Cc1ccccc1` [Example 3, [1S-[1α(5S^*),3α,4β,5α,6α(2E,4R^*,6R^*),7β]] 1-(5-Methyl-3-methylene-4-oxo-6-phenylhexyl)-4,6,7-trihydroxy-2,8-dioxabicyclo[3.2.1]octane-3,4,5-tricarboxylic acid, 6-(4,6-dimethyl-2-octenoate)] registered a 50% inhibitory concentration (IC50) on squalene synthase below 100 nM.
`C=C(CC[C@]12O[C@H](C(=O)O)[C@@](O)(C(=O)O)[C@](C(=O)O)(O1)[C@H](OC(=O)/C=C/[C@@H](C)C[C@@H](C)CC)[C@H]2O)[C@H](O)[C@H](C)Cc1ccccc1` (relative stereo) [Example 1, [1S-[1α(4S*,5S*),3α,4β,5α,6α(2E,4R*,6R*),7β]] 1-(4-Hydroxy-5-methyl-3-methylene-6-phenylhexyl)-4,6,7-trihydroxy-2,8-dioxabicyclo[3.2.1]octane-3,4,5-tricarboxylic acid, 6-(4,6-dimethyl-2-octenoate)] yielded a 50% inhibitory concentration (IC50) on squalene synthase below 100 nM. In assay [1], this molecule yielded an MIC of 0.1 to 31 µg/mL (≈ 0.154 to 47.8 µM).
Turning to `CC[C@H](C)C[C@H](C)/C=C/C(=O)O[C@@H]1[C@@H](O)[C@@]2(C/C=C(\C)C[C@H](C)Cc3ccccc3)O[C@H](C(=O)O)[C@@](O)(C(=O)O)[C@]1(C(=O)O)O2` (relative stereo) [Example 9, [1S-[1α[(E),5R*],3α,4β,5α,6α(2E,4R*,6R*),7β]] 1-(3,5-Dimethyl-6-phenyl-2-hexenyl)-4,6,7-trihydroxy-2,8-dioxabicyclo[3.2.1]octane-3,4,5-tricarboxylic acid, 6-(4,6-dimethyl-2-octenoate)], on squalene synthase, the half-inhibitory concentration (IC50) is below 100 nM.
The molecule `C=C(CC[C@]12O[C@H](C(=O)O)[C@@](O)(C(=O)O)[C@](C(=O)O)(O1)[C@H](OC(=O)NC)[C@H]2O)[C@@H](OC(C)=O)[C@H](C)Cc1ccccc1` (relative stereo) [Example 67, [1S-[1α(4R*,5S*),3α,4β,5α,6α,7β]] 1-(4-Acetyloxy-5-methyl-3-methylene-6-phenylhexyl)-4,7-dihydroxy-6-[[(methylamino)carbonyl]oxy]-2,8-dioxabicyclo[3.2.1]octane-3,4,5-tricarboxylic acid] had a concentration for half-maximal inhibition (IC50) on squalene synthase below 100 nM.
On to `CC[C@H](C)C[C@H](C)/C=C/C(=O)O[C@@H]1[C@@H](O)[C@@]2(C/C=C(\C)C(=O)[C@H](C)Cc3ccccc3)O[C@H](C(=O)O)[C@@](O)(C(=O)O)[C@]1(C(=O)O)O2` (relative stereo) [Example 2, [1S-[1α[(E),5S*],3α,4β,5α,6α(2E,4R*,6R*),7β]] 1-(3,5-Dimethyl-4-oxo-6-phenyl-2-hexenyl)-4,6,7-trihydroxy-2,8-dioxabicyclo[3.2.1]octane-3,4,5-tricarboxylic acid, 6-(4,6-dimethyl-2-octenoate)], for which the IC50 on squalene synthase was below 100 nM.
